The values that follow come from patent US10093630B2, “Pyrazole compounds and methods of making and using same” (ABIDE THERAPEUTICS, INC., priority 2014, dated 2018).

Common to all, as to experiment: In vitro competitive activity-based protein profiling (gel-based, FP-Rh or HT-01 probe)
What all share (assay type): biochemical

Assay [1] deals with T1, FAAH (Mus musculus, UniProt O08914).
T1 construct: Proteomes (mouse brain membrane fraction or cell lysates); from tissue; host or cells: mouse brain membrane fraction (or cell lysates, not specified)
T1 sequence (O08914 1-579): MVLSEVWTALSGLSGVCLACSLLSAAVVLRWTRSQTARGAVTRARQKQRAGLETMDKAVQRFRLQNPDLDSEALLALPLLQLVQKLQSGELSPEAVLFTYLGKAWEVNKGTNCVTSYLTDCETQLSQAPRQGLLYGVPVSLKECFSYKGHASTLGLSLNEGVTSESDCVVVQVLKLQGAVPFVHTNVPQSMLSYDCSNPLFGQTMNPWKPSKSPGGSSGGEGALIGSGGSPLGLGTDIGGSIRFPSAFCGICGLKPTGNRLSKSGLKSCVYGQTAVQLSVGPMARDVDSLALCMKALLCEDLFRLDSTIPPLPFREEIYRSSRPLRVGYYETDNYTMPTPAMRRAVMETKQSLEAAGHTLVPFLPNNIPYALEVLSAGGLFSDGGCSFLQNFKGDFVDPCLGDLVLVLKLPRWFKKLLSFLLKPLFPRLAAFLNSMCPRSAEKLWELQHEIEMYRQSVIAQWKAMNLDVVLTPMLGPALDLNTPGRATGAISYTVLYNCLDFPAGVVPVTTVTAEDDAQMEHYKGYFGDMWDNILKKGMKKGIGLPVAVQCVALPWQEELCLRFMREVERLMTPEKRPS
The note with it: for inhibition at 1 µM: 1 μM inhibitor, read-out: % Inhibition at 1 μM, B = FAAH; for inhibition at 10 µM: 10 μM inhibitor, read-out: % Inhibition at 10 μM, B = FAAH; for IC50: mouse brain membrane fraction or cell lysates, 30 min preincubation at 37° C., read-out: Mouse (IC50 value, nM) FAAH. The essentials: (§1)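 Mouse brain membrane or cell lysate proteomes (1.0 mg/mL) preincubated with inhibitors 30 min at 37° C, then labelled with FP-Rh or HT-01 for 30 min at 37° C. After SDS-PAGE, activity quantified from fluorescent band intensity.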

The target of assay [2] is T2, MAGL (Mus musculus, UniProt O35678).
T2 construct: Proteomes (mouse brain membrane fraction or cell lysates); from tissue; host or cells: mouse brain membrane fraction (or cell lysates, not specified)
T2 sequence (O35678 1-303): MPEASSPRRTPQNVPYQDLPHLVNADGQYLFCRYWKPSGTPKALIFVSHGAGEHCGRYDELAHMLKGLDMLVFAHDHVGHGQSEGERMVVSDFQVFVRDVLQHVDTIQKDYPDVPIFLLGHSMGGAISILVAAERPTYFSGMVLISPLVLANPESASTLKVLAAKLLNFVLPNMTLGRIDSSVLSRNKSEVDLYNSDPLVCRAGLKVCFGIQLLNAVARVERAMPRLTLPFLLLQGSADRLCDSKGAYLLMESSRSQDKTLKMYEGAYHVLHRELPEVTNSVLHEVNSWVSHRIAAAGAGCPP
The note with it: for inhibition at 1 µM: 1 μM inhibitor; for inhibition at 10 µM: 10 μM inhibitor; for IC50: mouse brain membrane fraction or cell lysates, 30 min preincubation at 37° C., read-out: Mouse (IC50 value, nM) MAGL. In outline:
as §1

Assay [3] addresses T3, PLA2G7 (Mus musculus, UniProt Q60963).
T3 construct: Proteomes (mouse brain membrane fraction or cell lysates); from tissue; host or cells: mouse brain membrane fraction (or cell lysates, not specified)
T3 sequence (Q60963 22-440): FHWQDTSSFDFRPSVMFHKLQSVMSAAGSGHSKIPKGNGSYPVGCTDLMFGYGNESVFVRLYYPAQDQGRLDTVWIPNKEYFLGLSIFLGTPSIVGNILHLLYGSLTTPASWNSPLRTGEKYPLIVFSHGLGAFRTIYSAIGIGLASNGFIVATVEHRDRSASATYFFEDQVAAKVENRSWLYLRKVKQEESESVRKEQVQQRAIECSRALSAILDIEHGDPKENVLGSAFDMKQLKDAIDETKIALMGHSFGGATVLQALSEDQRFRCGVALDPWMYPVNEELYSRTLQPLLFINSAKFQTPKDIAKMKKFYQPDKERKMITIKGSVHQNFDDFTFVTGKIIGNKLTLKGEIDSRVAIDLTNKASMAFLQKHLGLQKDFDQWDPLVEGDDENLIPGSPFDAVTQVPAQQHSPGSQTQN
The note with it: for inhibition at 10 µM: 10 μM inhibitor, read-out: % Inhibition at 10 μM, D = PLA2G7; for inhibition at 1 µM: 1 μM inhibitor, read-out: % Inhibition at 1 μM, D = PLA2G7. In outline:
as §1

In assay [4] the target is T4, ABHD6 (Mus musculus, UniProt Q8R2Y0).
T4 construct: Proteomes (mouse brain membrane fraction or cell lysates); from tissue; host or cells: mouse brain membrane fraction (or cell lysates, not specified)
T4 sequence (Q8R2Y0 1-336): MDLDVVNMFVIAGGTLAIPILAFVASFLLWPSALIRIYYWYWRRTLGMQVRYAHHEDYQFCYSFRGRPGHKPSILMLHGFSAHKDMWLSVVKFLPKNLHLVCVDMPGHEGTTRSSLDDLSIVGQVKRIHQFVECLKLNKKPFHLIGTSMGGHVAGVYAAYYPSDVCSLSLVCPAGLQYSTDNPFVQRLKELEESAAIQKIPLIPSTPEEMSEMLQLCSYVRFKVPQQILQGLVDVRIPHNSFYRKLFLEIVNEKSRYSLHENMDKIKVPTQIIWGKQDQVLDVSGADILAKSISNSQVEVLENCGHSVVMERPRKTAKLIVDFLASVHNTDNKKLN
The note with it: for inhibition at 1 µM: 1 μM inhibitor, read-out: % Inhibition at 1 μM, C = ABHD6; for inhibition at 10 µM: 10 μM inhibitor, read-out: % Inhibition at 10 μM, C = ABHD6; for IC50: mouse brain membrane fraction or cell lysates, 30 min preincubation at 37° C., read-out: Mouse (IC50 value, nM) ABHD6. In outline:
as §1

Read-outs that look alike come from different tables or passages of the source.

With `O=C(N1CCN(Cc2ccc(C(F)(F)F)cc2N2CCCC2)CC1)n1cc(-c2ccc(C(F)(F)F)cc2)cn1` [Example 116, (4-(2-(Pyrrolidin-1-yl)-4-(trifluoromethyl)benzyl)piperazin-1-yl)(4-(4-(trifluoromethyl)phenyl)-1H-pyrazol-1-yl)methanone], the inhibition (commonly the percentage by which the read-out fell short of the control) at 1 µM was less than 25% in assay [1], 25 to 75% in assay [2] and greater than 75% in assay [4]. The inhibition at 10 µM is less than 25% in assay [1], greater than 75% in assay [2], greater than 75% in assay [3] and greater than 75% in assay [4]. For the same molecule, in assay [4], the IC50 – broadly, the midpoint of a concentration-inhibition curve – was greater than 1000 nM.
Turning to `O=C(N1CCN(c2cccc(N3CCCC3)c2)CC1)n1cc(C(F)(F)F)cn1` [Example 240, (4-(3-(Pyrrolidin-1-yl)phenyl)piperazin-1-yl)(4-(trifluoromethyl)-1H-pyrazol-1-yl)methanone], the inhibition at 1 µM in assay [1], in assay [2], in assay [3] and in assay [4] was greater than 75% in each case. Also, the inhibition at 10 µM in assay [1], in assay [2], in assay [3] and in assay [4] was greater than 75% each time.
As for `N#Cc1cnn(C(=O)N2CCCN(Cc3cccc(Oc4ccccc4)c3)CC2)c1` [Example 299, 1-(4-(3-Phenoxybenzyl)-1,4-diazepane-1-carbonyl)-1H-pyrazole-4-carbonitrile], the inhibition at 1 µM in assay [1] (gel-based competitive ABPP) was greater than 75%; in assay [2] (gel-based competitive ABPP), greater than 75%; in assay [3] (gel-based competitive ABPP), less than 25%; in assay [4] (gel-based competitive ABPP) it was greater than 75%.
`O=C(c1cnn(C(=O)N2CCN(Cc3ccncc3)CC2)c1)N1CCOCC1` [Example 52, (4-(Morpholine-4-carbonyl)-1H-pyrazol-1-yl)(4-(pyridin-4-ylmethyl)piperazin-1-yl)methanone]: the inhibition at 10 µM was less than 25% in assay [1], less than 25% in assay [2], greater than 75% in assay [3] and greater than 75% in assay [4]. Besides, the inhibition at 1 µM was less than 25% in assay [3] and 25 to 75% in assay [4].
Regarding `CS(=O)(=O)N1CCCN(C(=O)n2cc(C#N)cn2)CC1` [Example 178, 1-(4-(methylsulfonyl)-1,4-diazepane-1-carbonyl)-1H-pyrazole-4-carbonitrile], the inhibition at 1 µM in assay [1], in assay [2], in assay [3] and in assay [4] was less than 25% throughout. The inhibition at 10 µM in assay [1] is greater than 75%; in assay [2] it was greater than 75%; in assay [3], 25 to 75%; in assay [4], greater than 75%.
Take `O=C(N1CCN(Cc2ccccc2)CC1)n1cc(C(F)(F)F)cn1` [Example 152, (4-Benzylpiperazin-1-yl)(4-(trifluoromethyl)-1H-pyrazol-1-yl)methanone]: the inhibition at 1 µM in assay [1], in assay [2], in assay [3] and in assay [4] was greater than 75% throughout. Moreover, the inhibition at 10 µM in assay [1], in assay [2], in assay [3] and in assay [4] was greater than 75% each time.
Turning to `O=C(N1CCN(Cc2ccc(-c3ccccc3)cc2Cl)CC1)n1cc(Cl)cn1` [Example 139, (4-chloro-1H-pyrazol-1-yl)(4-((3-chlorobiphenyl-4-yl)methyl)piperazin-1-yl)methanone], the inhibition at 1 µM was greater than 75% in assay [1], greater than 75% in assay [2], less than 25% in assay [3] and greater than 75% in assay [4]. Moreover, the inhibition at 10 µM in assay [1], in assay [2], in assay [3] and in assay [4] was greater than 75% in each case. Also, the IC50 in assay [1] is less than 100 nM; in assay [2] it was less than 100 nM; in assay [3] (mouse brain membrane fraction or cell lysates, 30 min preincubation at 37° C.) it was greater than 1000 nM; in assay [4], 100 to 1000 nM.
Consider `CCN(Cc1cccc(OC)c1)C(=O)n1cc(Cl)cn1` [Example 128, 4-Chloro-N-ethyl-N-(3-methoxybenzyl)-1H-pyrazole-1-carboxamide], for which the inhibition at 10 µM is greater than 75% in assay [1], greater than 75% in assay [2], less than 25% in assay [3] and greater than 75% in assay [4]. The half-maximal inhibitory concentration (IC50) in assay [1] was 100 to 1000 nM; in assay [2], greater than 1000 nM; in assay [4], greater than 1000 nM.
Take `CN1CCCN(C(=O)n2cc(C(F)(F)F)cn2)CC1` [Example 156, (4-Methyl-1,4-diazepan-1-yl)(4-(trifluoromethyl)-1H-pyrazol-1-yl)methanone]: the inhibition at 1 µM in assay [1], in assay [2], in assay [3] and in assay [4] was less than 25% throughout. Further, the inhibition at 10 µM in assay [1] was 25 to 75%; in assay [2], less than 25%; in assay [3], greater than 75%; in assay [4], less than 25%.
Regarding `CS(=O)(=O)N1CCN(C(=O)n2cc(C#N)cn2)CC1` [Example 174, 1-(4-(Methylsulfonyl)piperazine-1-carbonyl)-1H-pyrazole-4-carbonitrile], the inhibition at 1 µM in assay [1] is less than 25%; in assay [2] it was less than 25%; in assay [3], greater than 75%; in assay [4], greater than 75%. Also, the inhibition at 10 µM in assay [1] was 25 to 75%; in assay [2] it was 25 to 75%; in assay [3] it was greater than 75%; in assay [4], greater than 75%.
As to `O=C(c1cnn(C(=O)N2CCN(Cc3ccncn3)CC2)c1)N1CCCC1` [Example 82, (4-(Pyrimidin-4-ylmethyl)piperazin-1-yl)(4-(pyrrolidine-1-carbonyl)-1H-pyrazol-1-yl)methanone], the inhibition at 10 µM was 25 to 75% in assay [1], less than 25% in assay [2], greater than 75% in assay [3] and greater than 75% in assay [4]. Besides, the inhibition at 1 µM in assay [3] and in assay [4] was less than 25% in each case.
`Cc1cnn(C(=O)NCCCCc2ccccc2)c1` [Example 35, 4-Methyl-N-(4-phenylbutyl)-1H-pyrazole-1-carboxamide]: the inhibition at 10 µM in assay [1], in assay [2], in assay [3] and in assay [4] was less than 25% throughout.
